pIC50: −log10 of the molar value. “And” between values parts separate entries of the source, which are not always exact repeats. Equal entries are not always repeated.
Assays:
[1] = system: L. amazonensis promastigotes; test: Antiproliferation assay: L. amazonensis promastigotes (24 h), resazurin; type: cell-based, Leishmania amazonensis (IFLA/BR/1967/PH8); settings: Leishmania amazonensis, 24 h of exposure, read-out: IC50
Protocol: Leishmania amazonensis promastigotes (IFLA/BR/1967/PH8) for the 24 h exposure test were cultivated in RPMI 1640, supplemented with 20% v/v heat inactivated fetal bovine serum (FBS) and incubated at 26°C until near the end of the log growth phase. Leishmania amazonensis (IFLA/BR/1967/PH8) and L. infantum (MCAN/BR/2008/1112) promastigotes used in the 72 h exposure test were cultivated in Warren’s medium (containing brain heart infusion- BHI plus hemin and folic acid), supplemented with 10% FBS, 0.1% of the antibiotics: 100 UI/mL penicillin G and 0.1 mg/mL streptomycin. Leishmania amazonensis (IFLA/BR/1967/PH8) transfected with the red fluorescent protein (RFP) gene was cultured in M199 medium (containing 0.1 mmol/L adenine, 40 mmol/L hepes, 0.0005% hemin and 0.0002% biotin), supplemented with 10% FBS, and 0.1% of the antibiotic. Parasites were maintained at 25°C in a BOD incubator.
Extracts and fractions were tested against L. amazonensis (IFLA/BR/1967/PH8) promastigote cells in a 96-well plate at a concentration of 10^6 cells/well. Each sample was solubilized in DMSO (<1%) since it was not soluble directly in the medium. Extracts were tested at 100 μg/mL and 50 μg/mL. […] Plates were read at 570 nm and 595 nm in a microplate reader (BiochromAsys UVM 340) after cell lysis with sodium dodecyl sulfate (SDS). Viability was calculated based on the equations described by Kulshrestha.

Cytotoxicity assay (MTT) = type: cell-based, BALB/c mice; settings: female, BALB/c, mouse, murine peritoneal macrophages; 72 h exposure
Protocol: Female BALB/c mice pre-inoculated with 3% thioglycollate medium were used to obtain macrophages from the peritoneal cavity. Peritoneal exudate was collected 72 h post-inoculation using cold Hank´s Balanced Salt Solution and the assay performed as previously reported. Briefly, peritoneal macrophages in RPMI 1640 medium were transferred to a 96-well plate (2x10^5 cells/well) and incubated at 37°C in 5% CO2 for 24 h to allow adhesion. Samples were serially diluted (100 μg/mL to 0.78 μg/mL), added to the plate with the cells and incubated under the same conditions for 72 h. MTT (10 μL/well) was subsequently added and the plates re-incubated for a further 2 h. To halt the reaction, 100 μL of acidified isopropanol was added to each well. The plate was then read at 570 nm in a microplate reader (Multiskan MS, LabSystems Oy, Helsinki, Finland).

[2] = system: L. amazonensis amastigotes; test: L. amazonensis amastigotes assay (RFP parasites in peritoneal macrophages); type: cell-based, Leishmania amazonensis (IFLA/BR/1967/PH8)
Protocol: Peritoneal macrophages obtained from BALB/c mice were transferred to a 24-well plate (6x10^5 cells/well) in RPMI 1640 medium supplemented with 10% inactivated FBS and 20 mM L-glutamine, pH 7.2. The plate was incubated at 37°C in 5% CO2 for 24 h. After this period, macrophages were infected with L. amazonensis (IFLA/BR/1967/PH8) transfected with RFP in the stationary growth phase using a ratio 1:10 (macrophages/parasites) at 33°C for 4 h. The non-phagocytosed parasites were subsequently removed by extensive PBS wash, and samples added at non-toxic concentrations, in accordance with the cytotoxicity tests (100 μg/mL to 1.56 μg/mL) to determine the IC50 for the intracellular parasite. After 72 h, the supernatant was removed from the wells and 200 μL of deionized water added to each well to lyse the cell membrane. After lysis, the resulting supernatants were transferred to a black 96-well plate. The plate was read in a fluorescence spectrophotometer (FLx800, BioTek Instruments, Inc., Winooski, VT, USA) with 540/600 nm of excitation/emission. Wells containing macrophages infected with L. amazonensis (RFP) […] only were used as negative controls.

C=C[C@@H](c1cc(CC=C(C)C)ccc1O)c1cc(CC=C(C)C)c(OC)cc1O [Compound 3, connarin]
pIC50 [1]: 4.69
CC50 at 72 h (Cytotoxicity assay (MTT)): 7.2 µg/mL and 18.3 µM
SI (Selectivity Index) ([2]; CC50 macrophages / IC50 L. amazonensis amastigotes): 6.3
IC50 ([2]; Leishmania amazonensis, Peritoneal macrophage, intracellular, 72 h): 1.13 µg/mL and 2.9 µM
